These results are taken from patent US11981661B2, “Heterocyclic compounds” (Hoffmann-La Roche Inc., priority 2020, dated 2024).

This assay addresses T1, MAGL (Homo sapiens, UniProt Q99685).
T1 sequence (Q99685 1-303): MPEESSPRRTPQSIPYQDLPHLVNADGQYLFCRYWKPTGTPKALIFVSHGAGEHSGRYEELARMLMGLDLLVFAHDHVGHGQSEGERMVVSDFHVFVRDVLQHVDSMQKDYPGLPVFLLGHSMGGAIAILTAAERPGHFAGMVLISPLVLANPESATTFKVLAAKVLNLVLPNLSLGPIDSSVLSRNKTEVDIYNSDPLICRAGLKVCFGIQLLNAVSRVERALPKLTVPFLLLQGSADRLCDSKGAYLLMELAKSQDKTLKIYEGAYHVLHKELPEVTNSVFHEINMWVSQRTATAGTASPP
Put plainly: 2-AG assay (MAGL inhibitory activity, hydrolysis of 2-arachidonoylglycerol followed by mass spectrometry). It is filed as biochemical. To be noted: 50 pM MAGL, 8 μM 2-arachidonoylglycerol, 15 min preincubation, 30 min incubation at RT, concentration range 12.5 μM to 0.8 pM. How it is done: Compounds were profiled for MAGL inhibitory activity by determining the enzymatic activity by following the hydrolysis of the natural substrate 2-arachidonoylglycerol resulting in arachidonic acid, which can be followed by mass spectrometry. This assay is hereinafter abbreviated “2-AG assay”.
The 2-AG assay was carried out in 384 well assay plates (PP, Greiner Cat #784201) in a total volume of 20 μL. Compound dilutions were made in 100% DMSO (VWR Chemicals 23500.297) in a polypropylene plate in 3-fold dilution steps to give a final concentration range in the assay from 12.5 μM to 0.8 pM. 0.25 μL compound dilutions (100% DMSO) were added to 9 μL MAGL in assay buffer (50 mM TRIS (GIBCO, 15567-027), 1 mM EDTA (Fluka, 03690-100 mL), 0.01% (v/v) Tween. After shaking, the plate was incubated for 15 min at RT. To start the reaction, 10 μL 2-arachidonoylglycerol in assay buffer was added. The final concentrations in the assay was 50 pM MAGL and 8 μM 2-arachidonoylglyerol. After shaking and 30 min incubation at RT, the reaction was quenched by the addition of 40 μL of ACN containing 4 μM of d8-arachidonic acid. The amount of arachidonic acid was traced by an online SPE system (Agilent Rapidfire) coupled to a triple quadrupole mass spectrometer (Agilent 6460). A C18 SPE cartridge (G9205A) was used in an ACN/water liquid setup. The mass spectrometer was operated in negative electrospray mode following the mass transitions 303.1→259.1 for arachidonic acid and 311.1→267.0 for d8-arachidonic acid. The activity of the compounds was calculated based on the ratio of intensities [arachidonic acid/d8-arachidonic acid].
For `O=C(CCCc1cnn[nH]1)N1CC(OCc2ccc(C(F)(F)F)cc2F)C1` [Example 39, 1-[3-[[2-Fluoro-4-(trifluoromethyl)phenyl]methoxy]azetidin-1-yl]-4-(1H-triazol-5-yl)butan-1-one], the IC50 (usually the concentration needed to halve the response being measured) was determined as 58 nM.

`O=C(CCCc1cnn[nH]1)N1CC(c2ccc(C3(C(F)(F)F)CC3)cc2)C1` [Example 40, 4-(1H-Triazol-5-yl)-1-[3-[4-[1-(trifluoro-methyl)cyclopropyl]phenyl]azetidin-1-yl]butan-1-one] showed an IC50 of 21 nM.

`CC(C)(Oc1ccc(C2CN(C(=O)CCCc3cnn[nH]3)C2)cc1)C(F)(F)F` [Example 41, 4-(1H-Triazol-5-yl)-1-[3-[4-(2,2,2-trifluoro-1,1-dimethyl-ethoxy)phenyl]azetidin-1-yl]butan-1-one]: the IC50 is 23 nM.

As for `O=C(CCCc1cnn[nH]1)N1CC(c2ccc(Oc3ccc(OC(F)(F)F)cc3)nc2)C1` [Example 42, 4-(1H-Triazol-5-yl)-1-[3-[6-[4-(trifluoro-methoxy)phenoxy]-3-pyridyl]azetidin-1-yl]butan-1-one], 218 nM corresponded to half-maximal inhibition (IC50).

Molecule `O=C(CCCc1cnn[nH]1)N1CC2(CC(Oc3cncc(C(F)(F)F)n3)C2)C1` [Example 43, 4-(1H-Triazol-5-yl)-1-[6-[6-(trifluoromethyl)pyrazin-2-yl]oxy-2-azaspiro[3.3]heptan-2-yl]butan-1-one] yielded an IC50 of 6950 nM.

The molecule `O=C(CCCc1cnn[nH]1)N1CC(C#Cc2cccc(Cl)c2)C1` [Example 44, 1-[3-[2-(3-Chlorophenyl)ethynyl]azetidin-1-yl]-4-(1H-triazol-5-yl)butan-1-one] showed an IC50 of 61 nM.

The molecule `O=C(CCCc1cnn[nH]1)N1CC(c2ccc(N3CC(OCC(F)(F)F)C3)cc2)C1` [Example 46, 4-(1H-Triazol-5-yl)-1-[3-[4-[3-(2,2,2-trifluoroethoxy)azetidin-1-yl]phenyl]azetidin-1-yl]butan-1-one] registered an IC50 of 323 nM.

The molecule `O=C(CCc1ccn[nH]1)N1CC(OCc2ccc(C(F)(F)F)cc2F)C1` [Example 47, 1-[3-[[2-Fluoro-4-(trifluoromethyl)phenyl]methoxy]azetidin-1-yl]-3-(1H-pyrazol-5-yl)propan-1-one] came in with an IC50 of 430 nM.

`O=C(CCc1cccc(=O)[nH]1)N1CC(OCc2ccc(C(F)(F)F)cc2F)C1` [Example 48, 6-[3-[3-[[2-Fluoro-4-(trifluoromethyl)phenyl]methoxy]azetidin-1-yl]-3-oxo-propyl]-1H-pyridin-2-one] displayed an IC50 of 598 nM.

In turn, `O=C1CCCC(CCC(=O)N2CC(OCc3ccc(C(F)(F)F)cc3F)C2)N1` (centres unmarked) [Example 49, 6-[3-[3-[[2-Fluoro-4-(trifluoromethyl)phenyl]methoxy]azetidin-1-yl]-3-oxo-propyl]piperidin-2-one] had a half-inhibitory concentration (IC50) of 605 nM.

`O=C1CC[C@@H](COC(=O)N2CC(OCc3ccc(C(F)(F)F)cc3F)C2)N1` [Example 52, [(2S)-5-Oxopyrrolidin-2-yl]methyl 3-[[2-fluoro-4-(trifluoromethyl)phenyl]methoxy]azetidine-1-carboxylate] came in with a half-inhibitory concentration (IC50) of 167 nM.

In turn, `O=C1CC[C@H](COC(=O)N2CC(OCc3ccc(C(F)(F)F)cc3F)C2)N1` [Example 53, [(2R)-5-Oxopyrrolidin-2-yl]methyl 3-[[2-fluoro-4-(trifluoromethyl)phenyl]methoxy] azetidine-1-carboxylate] had an IC50 of 907 nM.

`O=C1N[C@H](COC(=O)N2CC(OCc3ccc(C(F)(F)F)cc3F)C2)CO1` [Example 54, [(4S)-2-Oxooxazolidin-4-yl]methyl 3-[[2-fluoro-4-(trifluoromethyl)phenyl]methoxy] azetidine-1-carboxylate]: 36 nM corresponded to half-maximal inhibition (IC50).

For `O=C1N[C@@H](COC(=O)N2CC(OCc3ccc(C(F)(F)F)cc3F)C2)CO1` [Example 55, [(4R)-2-Oxooxazolidin-4-yl]methyl 3-[[2-fluoro-4-(trifluoromethyl)phenyl]methoxy] azetidine-1-carboxylate], the IC50 was found to be 33 nM.
